From patent US20230415137A1, “PHOTOCATALYST COMPOSITION, PHOTOCATALYST COMPOSITION SOLUTION, PHOTOCATALYST MEMBER, METHOD FOR USING PHOTOCATALYST COMPOSITION, AND SPACE DISINFECTION METHOD” (priority 2020, published 2023)

Test system: indigenous bacteria collected from the ultrasonic humidifier
Test: Bactericidal evaluation (photocatalyst composition solutions, first example group)
Type: cell-based
Settings: riboflavin sodium phosphate set to 10,000 ppm, no sacrificial agent
Procedure: The indigenous bacteria collected from the ultrasonic humidifier is adjusted to a predetermined concentration, then was added to an autoclave-sterilized normal bouillon medium (Eiken (register trade mark), manufactured by Eiken Chemical Co., Ltd.). Shaking culture for 24 hours was performed in a shaking incubator at 30° C. and 120 rpm. The solution when the number of bacteria reached about 1.5×10^9 CFU/ml was used as an inoculum solution.
Separately, the photocatalyst composition solutions obtained in the above Examples and Comparative Examples were also autoclave sterilized.
The inoculum solution was diluted with each of the photocatalyst composition solutions of the above Examples and Comparative Examples to prepare a solution having the number of bacteria of 1.5×10^7 CFU/ml, which was used as a test solution.
Two similar samples for each example and comparative example were prepared and stored under the following two conditions. The number of bacteria was measured using “Sani-Check BF” (manufactured by Biosan Laboratories, Inc.) and evaluation was performed according to the following evaluation criteria. […]

Question: With Cc1cc2nc3c(=O)[nH]c(=O)nc-3n(C[C@H](O)[C@H](O)[C@H](O)COP(=O)(O)O)c2cc1C [riboflavin sodium phosphate] as the compound, how does the “bactericidal effect as worded in the text” value read?
Answer: a certain degree of bactericidal effect
